Assay results published in US8648080B2, “Acid pump antagonist for the treatment of diseases involved in abnormal gastrointestinal motility” (RaQualia Pharma Inc., priority 2009, dated 2014).

Test system: gastrointestinal motility in the gastric antrum and duodenum
Assay: gastrointestinal motility under pentagastrin-stimulated gastric acid secretion in conscious dogs with force transducers
Format: in vivo, Beagle dogs
Description: Beagle dogs surgically wearing a force transducer at gastric antrum and serosal side of duodenum were used, and the motion of the gastric antrum and duodenum under wakefulness were observed. After confirming the phase III in the hungry condition, gastric acid secretion was stimulated by pentagastrin subcutaneous infusion (6 microg/kg/hr). Pentagastrin infusion was continued until the end of the study. After about 2 hours from pentagastrin infusion, an acid pump antagonist (compound A) was orally administered, and then gastrointestinal motility was continuously observed for 2-3 hours. In FIG. 1, the horizontal axis represents the time at measuring, and the vertical axis represents the gastrointestinal contraction towards muscle bridge of gastric antrum or duodenum. The phase III contraction disappeared by pentagastrin stimulation, 6 microg/kg/hr, which is known to promote gastric acid secretion; and uncoordinated contraction, which is different from the contraction of postprandial period with solid food, occurred in the stomach and duodenum.

## COCCn1c(C)nc2cc(C(=O)N(C)C)c3c(c21)OC(c1ccccc1)CC3 (single isomer, unassigned; (-)) [compound A, (−)-1-(2-methoxyethyl)-N,N,2-trimethyl-8-phenyl-1,6,7,8-tetrahydrochromeno[7,8-d]imidazole-5-carboxamide]
0.3 mg/kg orally, about 2 hours after start of pentagastrin s.c. infusion 6 microg/kg/hr, hungry condition, FIG. 1
  effect on gastrointestinal motility (phase III contraction / IMC): the phase III contraction occurred in the stomach and duodenum
0.3 mg/kg orally, pentagastrin infusion 6 microg/kg/hr, stomach and duodenum
  time after administration at which phase III contraction occurred: one

## Cc1cccc(C)c1CNc1cc(C(=O)NCCO)cn2c(C)c(C)nc12 [AZD0865, 8-[{2,6-dimethylbenzyl}amino]-N-[2-hydroxyethyl]-2,3-dimethyl-imidazo[1,2-a]pyridin-6-carboxamide]
1.5 mg/kg orally, pentagastrin infusion, method as Example 1
  time after dosing until irregular contraction tended to subside: one
1.5 mg/kg orally, pentagastrin infusion, method as Example 1, FIG. 4
  effect on gastrointestinal motility (phase III contraction / IMC): IMC occurred

## Cc1nc2c(O[C@H]3CCOc4cc(F)cc(F)c43)cc(C(=O)N(C)C)cc2[nH]1 [compound B, (S)-(−)-4-[(5,7-difluoro-3,4-dihydro-2H-chromen-4-yl)oxy]-N,N,2-trimethyl-1H-benzimidazole-6-carboxamide]
1 mg/kg orally, pentagastrin infusion, method as Example 1
  time after dosing until IMC occurred: one
1 mg/kg orally, pentagastrin infusion, method as Example 1, FIG. 2
  effect on gastrointestinal motility (phase III contraction / IMC): IMC occurred

## Cc1nc(Nc2ccc(F)cc2)nc(N2CCc3ccccc3C2C)c1C.Cl (centres unmarked) [revaprazan, 5,6-dimethyl-2-(4-fluoro-phenylamino)-4-(1-methyl-1,2,3,4-tetrahydroisoquinoline-2-yl)pyrimidine hydrochloride]
10 mg/kg orally, pentagastrin infusion, method as Example 1
  time after dosing until irregular contraction tended to subside: one
10 mg/kg orally, pentagastrin infusion, method as Example 1, FIG. 3
  effect on gastrointestinal motility (phase III contraction / IMC): IMC occurred
